Laboratory results reported in patent US20130079309A1, “Method Of Treating Acute Lung Injury Using Sphingosine 1 Phosphate Analogs Or Sphingosine 1 Phosphate Receptor Agonists” (The Board of Trustees of the University of Illinois, priority 2010, published 2013).

Assays:
ERK = assay: Western blotting of HPAEC lysates for phospho-ERK; assay type: cell-based, human; conditions: 5 min
Description: (§1) After treatment as outlined for individual experiments, confluent HPAEC were lysed for Western blotting with phospho-MLC, pan-MLC, phospho-ERK, or pan-ERK antibodies. […] Membranes were then immunoblotted with primary antibodies (1:500-1000, 4° C., overnight) followed by secondary antibodies conjugated to horseradish peroxidase (1:5000, room temperature, 30 min) and detected with enhanced chemiluminescence (Pierce ECL or SuperSignal West Dura; Pierce Biotechnology, Rockford, Ill.) on Biomax MR film (Carestream Health, Rochester, N.Y.).

HPAEC [1] = assay: Pharmacologic inhibitor effects on barrier enhancement (TER); conditions: 1 μM agonist, 60 min; for % Inhibition of Maximal TER Response (of Agonist-Only Control), PTX: 2-h preincubation 100 ng/ml PTX; for % Inhibition of Maximal TER Response (of Agonist-Only Control), MβCD: 2-h preincubation 2 mM MβCD; for % Inhibition of Maximal TER Response (of Agonist-Only Control), Gen: 30-min preincubation 200 μM genistein
Description: Endothelial cells were grown to confluence in polycarbonate wells containing evaporated gold microelectrodes (surface area, 10^−3 cm^2) in series with a large gold counter electrode (1 cm^2) connected to a phase-sensitive lock-in amplifier. Current was applied across the electrodes by a 4,000-Hz AC voltage source with amplitude of 1 V in series with a 1 MΩ resistance to approximate a constant current source (˜1 μA). The in-phase and out-of-phase voltages between the electrodes were monitored in real time with the lock-in amplifier and subsequently converted to scalar measurements of transendothelial impedance, of which resistance was the primary focus. TER was monitored for 30 minutes to establish a baseline resistance (R0) which, for bovine pulmonary endothelium, was typically between 8 to 12×10^3Ω (wells with R0<7×10^3Ω were rejected). As cells adhere and spread out on the microelectrode, TER increases (maximal at confluence), whereas cell retraction, rounding, or loss of adhesion is reflected by a decrease in TER. These measurements provide a highly sensitive biophysical assay that indicates the state of cell shape and focal adhesion. Values from each microelectrode were pooled at discrete time points and plotted versus time as the mean±SE of the mean. TER values from each microelectrode were pooled as discrete time points and plotted versus time as the mean±S.E.M.
In this experiment, confluent HPAEC were plated on gold microelectrodes and then stimulated with 1 μM S1P, FTY720, 1R, 1S, 2R, or 2S after either a 2-h preincubation with 100 ng/ml PTX, 30-min preincubation with 200 μM genistein (Gen), or 2-h preincubation with 2 mM MβCD or their respective vehicle controls. Data were pooled from multiple TER experiments (4-10 independent experiments per condition) and expressed as percentage inhibition of maximal barrier enhancement at 60 min relative to agonist-only control.

S1P receptor 1 (S1PR1) = target: T1, S1P receptor 1 (S1PR1) (Mus musculus, UniProt O08530); assay: S1PR1 levels in lung homogenates of bleomycin mice by Western blotting; assay type: in vivo; conditions: 14 days after bleomycin
T1 construct: Lung homogenates were collected 14 days after bleomycin instillation; from tissue; host or cells: mouse lung (C57/BL6, bleomycin-injured)
Description: Lung homogenates were collected 14 days after bleomycin instillation. S1PR1 protein expression was determined by Western blotting (representative blots shown), quantified by densitometry, and normalized to actin concentration in the samples. Mean±S.D. is shown. N=2-3 animals per group.
As discussed above, (S)-FTY720-phosphonate maintains S1PR1 expression in mouse lungs after 24 hr relative to other S1PR1 agonists (FIG. 17). The data shown in FIG. 23 extend these observations to 14 days.

HPAEC [2] = assay: Immunofluorescence of F-actin cytoskeletal rearrangement; assay type: cell-based, human; conditions: 1 μM, 5 min (FTY720 5 and 30 min)
Description: Immunofluorescence was used to assess cytoskeletal rearrangements of […] cells in response to treatment with FTY720 analogs. Confluent HPAEC were stimulated with vehicle control or 1 μM S1P, 1R, 2R, or 3R for 5 min or with FTY720 (1 μM) for 30 min. EC were then fixed in 3.7% formaldehyde for 10 min, permeabilized with 0.25% Triton X-100 for 5 min, washed in PBS, blocked with 2% bovine serum albumin in Tris-buffered saline with Tween 20 for 1 h, and then incubated for 1 h at room temperature with the primary antibody of interest. After washing, EC were incubated with the appropriate secondary antibody conjugated to immunofluorescent dyes (or Texas Red-conjugated phalloidin for actin staining) for 1 h at room temperature. After further washing with Tris-buffered saline with Tween 20, coverslips were mounted using Prolong Anti-Fade Reagent (Invitrogen) and analyzed using a Nikon Eclipse TE2000 inverted microscope (Nikon, Melville, N.Y.).

HPAEC [3] = assay: Transwell transendothelial permeability assay (FITC-dextran); assay type: cell-based, human; conditions: 1 μM (3R, 3S 25 μM), 1 h before FITC-dextran, 2-h incubation
Description: As a complementary approach to further characterize the barrier-protective effects of these FTY720 analogs in vitro, the permeability of FITC-labeled dextran across the pulmonary EC monolayer was assayed in response to treatment by the FTY720 analogs. […] Data were normalized to unstimulated control. n=3 independent experiments per condition; *, p<0.01 versus unstimulated condition (see FIG. 26).

HPAEC [4] = assay: Intracellular calcium by Fura-2; assay type: cell-based, human; conditions: 1 μM
Description: To further explore the mechanistic differences in barrier regulation, intracellular calcium responses to the FTY720 analogs, S1P, and FTY720 were examined using Fura-2 (Harbeck et al., 2006, Sci STKE 2006: p16). HPAEC plated on 25-mm glass coverslips were loaded with 1 μM Fura-2/acetoxymethyl ester (Invitrogen, Carlsbad, Calif.) for 20 min at 37° C. in KRBH5 buffer (Krebs-Ringer-bicarbonate solution containing 119 mM NaCl, 4.7 mM KCl, 2.5 mM CaCl2, 1 mM MgCl2, 1 mM KH2PO4, 25 mM NaHCO3, mM HEPES-NaOH (pH 7.4), and 5 mM glucose). After replacement of the Fura-2 loading buffer with fresh KRBH5, coverslips were placed into the specimen stage of an inverted fluorescence microscope (Nikon TE-2000U). A Nikon Super Fluor 10× objective was used for these studies. Filters (340- and 380-nm excitation and 530-nm emission) were used for Fura-2 dual excitation ratio imaging. […] Fura-2 ratios were converted to [Ca^2+] using the equation: [Ca^2+]=(Kd′[(R−Rmin)/(Rmax−R)]×Sf/Sb) (Grynkiewicz et al., 1985, J Biol Chem 260: 3440-3450), where Kd′ is the dissociation constant for Fura-2 in the cytosol (225 nM) and Sf and Sb are the measured emission intensities at 380 nm for Ca^2+-free and Ca^2+-bound Fura-2, respectively. Data summaries for all Ca^2+ measurements are expressed as the means±S.E.

MLC = assay: Western blotting of HPAEC lysates for phospho-MLC; assay type: cell-based, human; conditions: 5 min
Description: as §1

[5] = test system: LPS-induced lung injury in C57BL/6 mice; conditions: single intraperitoneal injection; Peng et al., 2004; cited from earlier work
[6] = test system: bleomycin-induced ALI in C57/BL6 mice; conditions: Shea et al., 2010; cited from earlier work

T1 sequence (O08530 whole entry): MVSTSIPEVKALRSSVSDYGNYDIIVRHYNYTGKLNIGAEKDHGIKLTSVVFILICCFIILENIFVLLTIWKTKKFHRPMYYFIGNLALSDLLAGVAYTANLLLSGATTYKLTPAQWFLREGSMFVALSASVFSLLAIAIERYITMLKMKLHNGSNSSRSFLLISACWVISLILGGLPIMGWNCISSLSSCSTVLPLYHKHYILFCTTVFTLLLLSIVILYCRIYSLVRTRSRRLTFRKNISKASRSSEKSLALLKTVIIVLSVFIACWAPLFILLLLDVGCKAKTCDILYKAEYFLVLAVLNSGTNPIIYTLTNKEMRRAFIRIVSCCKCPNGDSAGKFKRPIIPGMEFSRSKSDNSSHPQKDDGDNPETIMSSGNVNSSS

SMILES | ERK phosphorylation (ERK) | % Inhibition of Maximal TER Response (of Agonist-Only Control), PTX (HPAEC [1]) | % Inhibition of Maximal TER Response (of Agonist-Only Control), MβCD (HPAEC [1]) | % Inhibition of Maximal TER Response (of Agonist-Only Control), Gen (HPAEC [1]) | S1PR1 levels in lungs, compared to FTY720-treated animals (S1P receptor 1 (S1PR1)) | cortical actin ring formation / F-actin rearrangement (HPAEC [2]) | EC permeability to FITC-dextran vs control EC (HPAEC [3]) | intracellular calcium [Ca2+]i (HPAEC [4]) | MLC phosphorylation (MLC) | murine LPS induced pulmonary injury, 24 hours after LPS [5] | lung injury and mortality in bleomycin-injured mice on prolonged exposure [6]
CCCCCCCCc1ccc(CC[C@@](N)(CO)CCP(=O)(O)O)cc1 [1S, (S)-3-amino-3-(hydroxymethyl)-5-(4-octylphenyl)pentylphosphonic acid] | failed to induce phosphorylation | 92.8 (±2.6) % | 97.2 (±0.8) % | 51.9 (±21.0) % | higher levels of S1PR1 | – | – | – | – | – | –
CCCCCCCCc1ccc(CCC(N)(CO)CO)cc1 [FTY720, 2-amino-2-[2-(4-octylphenyl)ethyl]propane-1,3-diol] | – | 84.0 (±9.1) % | 88.1 (±5.6) % | 86.2 (±10.7) % | – | failed to elicit cortical actin ring formation | significantly decreased permeability | only S1P produced a transient Ca^2+ spike | Neither FTY720 nor any of its analogs induced significant MLC phosphorylation | attenuate murine LPS induced-pulmonary injury | increased lung injury and mortality
